Reference: US6677313B1, “Method for gene therapy using nucleic acid loaded polymeric microparticles” (Brown University Research Foundation, priority 1995, dated 2004)

Assay: in vivo
Conditions: rat, serum, po, 25 mg/kg
Protocol: Dicumarol containing microspheres were produced as described above in Example 2, subsection 1. Equal doses of dicumarol, spray dried dicumarol and polyanhydride (FA:SA) 20:80 encapsulated dicumarol (25 mg drug/kg body weight) suspended in 1.5 ml maple syrup were fed to catheterized rats (250-350 g). Blood samples were taken at regular intervals and serum was assayed for dicumarol concentrations using a UV spectrophotometric method.

O=c1oc2ccccc2c(O)c1Cc1c(O)c2ccccc2oc1=O [STOCK DICUMAROL CONTROL, dicumarol]
AUC: 171 ± 33.2 µg·h/mL | Cmax: 11500 ± 1100 ng/mL | Tmax: 9.87 ± 1.76 h | half-life: 18.2 ± 3.3 h
